Laboratory results: patent US10273544B2, “Methods for predicting likelihood of responding to treatment” (Dana-Farber Cancer Institute, Inc., priority 2010, dated 2019)

Assays:
SLCO2B1-312Arg = molecular target: T1, SLCO2B1-312Arg (Homo sapiens, UniProt O94956); experiment: DHEAS uptake assay in LNCaP cells transfected with SLCO2B1-312Arg; settings: read-out: best-fit Km for DHEAS uptake; SLCO2B1-312Arg variant, nonlinear regression
T1 sequence (O94956 1-709 R312Q): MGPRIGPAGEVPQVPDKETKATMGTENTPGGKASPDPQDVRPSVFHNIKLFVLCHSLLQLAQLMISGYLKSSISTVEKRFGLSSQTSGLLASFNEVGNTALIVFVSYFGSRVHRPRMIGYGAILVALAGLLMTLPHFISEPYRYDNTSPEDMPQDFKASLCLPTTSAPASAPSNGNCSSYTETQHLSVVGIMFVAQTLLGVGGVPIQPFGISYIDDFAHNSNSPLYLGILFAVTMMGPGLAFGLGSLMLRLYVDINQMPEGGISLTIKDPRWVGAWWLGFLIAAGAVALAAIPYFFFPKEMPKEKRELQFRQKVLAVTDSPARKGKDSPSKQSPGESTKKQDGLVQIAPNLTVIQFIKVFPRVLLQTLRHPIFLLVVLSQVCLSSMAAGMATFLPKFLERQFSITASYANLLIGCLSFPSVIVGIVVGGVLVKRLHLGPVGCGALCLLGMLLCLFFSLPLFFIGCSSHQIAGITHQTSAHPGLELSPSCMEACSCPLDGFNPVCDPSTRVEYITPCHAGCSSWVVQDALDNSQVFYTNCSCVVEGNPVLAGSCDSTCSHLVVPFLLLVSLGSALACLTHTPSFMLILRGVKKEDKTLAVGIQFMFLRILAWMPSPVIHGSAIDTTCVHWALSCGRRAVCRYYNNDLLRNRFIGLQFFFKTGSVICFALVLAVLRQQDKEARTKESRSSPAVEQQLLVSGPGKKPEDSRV
Excerpt: (§1) Two full-length SLCO2B1 cDNAs, SLCO2B1-312Gln (having a G at the position 935) and SLCO2B1-312Arg (having an A at position 935), were cloned into the pCMV6-XL4 vector (OriGene Technologies, Rockville, Md.). The SLCO2B1 935G>A nucleotide exchange was introduced into the cDNA using the QuikChange Site-Directed Mutagenesis kit (Stratagene, La Jolla, Calif.). Primers used for the mutagenesis were 5′-[…]-3′ (SEQ ID NO:1) and 5′-[…]-3′ (SEQ ID NO:2) (underlined sequences encode 312Arg).
(§2) LNCaP cells were maintained in RPMI 1640 supplemented with 10% fetal bovine serum (FBS). Twenty-four hours before transfection, 2×10^5 cells were seeded in 12-well plates using Phenol-Red free RPMI 1640 supplemented with 10% charcoal-stripped FBS. LNCaP cells were transiently transfected with pCMV-SLCO2B1-312Gln, pCMV-SLCO2B1-312Arg, or pCMV6-XL4 empty vector using Lipofectamine^2000 according to the manufacturer's instructions.
(§3) The enzyme immunoassay test is based on the competition that occurs between an unlabeled antigen (present in standards, control and samples) and an enzyme-labeled antigen (conjugate) for a limited number of antibody binding sites on the microwell plate. The sensitivity of the kit is 5 ng/ml.

LNCaP cells [1] = experiment: Cell proliferation, WST-1 assay, LNCaP; assay type: cell-based; settings: 100 μM DHEAS, wild type LNCaP, androgen-depleted medium
Protocol: Cell proliferation was determined using a WST-1 kit (Roche, Indianapolis, Ind.). […] Tetrazolium salt cell proliferation assay then was carried out at different days after transfection, following the manufacturer's instructions.

AR = AR expression by quantitative RT-PCR; assay type: cell-based; settings: LNCaP and LAPC4 cell lines
Protocol: (§4) Total RNA was isolated from cells using TRIzol reagent (Invitrogen, Carlsbad, Calif.) and then converted to cDNA using High Capacity cDNA Reverse Transcription kit (Applied Biosystems, Foster City, Calif.). The expression levels of SLCO2B1 and GAPDH were measured using a standard TaqMan PCR kit protocol. Experiments were carried out in triplicate for each data point. Real-time PCR primers and probe sets were inventoried products of Applied Biosystem (Assay ID: Hs00200670_m1 and Hs02758991_g1).
(§5) The expression levels of AR and PSA were measured using a standard TaqMan PCR kit protocol (Hs02576345_m1 and Hs00171172_m1) as described in Example 3.

LNCaP cells [2] = experiment: DHEAS uptake assay in LNCaP cells (mock transfected; transfected cells overall); assay type: cell-based
Protocol: The sensitivity of the kit is 5 ng/ml. […] Samples were tested in triplicate.

PSA = experiment: AR mediated PSA expression by quantitative RT-PCR; assay type: cell-based
Protocol: as §4, §5

SLCO2B1-312Gln = molecular target: T2, SLCO2B1-312Gln (Homo sapiens, UniProt O94956, R312Q); experiment: DHEAS uptake assay in LNCaP cells transfected with SLCO2B1-312Gln; settings: read-out: best-fit Km for DHEAS uptake; SLCO2B1-312Gln variant, nonlinear regression
T2 sequence (O94956 1-709 R312Q): T1 sequence (O94956 1-709 R312Q)
Excerpt: as §1, §2, §3

## C[C@]12CC[C@H](OS(=O)(=O)O)CC1=CC[C@@H]1[C@@H]2CC[C@]2(C)C(=O)CC[C@@H]12 [DHEAS, sulfated dehydroepiandrosterone]
SLCO2B1-312Arg
  Km: 13.7 µM
LNCaP cells [1]
  increase of growth rate: about 1.4 fold
AR
  effect of DHEAS exposure on AR mRNA levels: increased AR mRNA levels
LNCaP cells [2]; 100 μM DHEAS, pCMV6-XL4 vector (mock) transfected LNCaP cells
  uptake of DHEAS: 51.66±7.44 pmol/mg protein
LNCaP cells [2]; 100 μM DHEAS, various transfected LNCaP cells
  incubation time at which DHEAS uptake reached maximum levels: 1 h
LNCaP cells [2]; SLCO2B1 variant transfected LNCaP cells
  DHEAS concentration at which uptake saturation is reached: 60 to 100 µM
PSA; 100 μM DHEAS, LAPC-4 cells
  up-regulation of PSA expression, SLCO2B1-Gln cells compared to SLCO2B1-Arg cells: 1.48 fold
PSA; wild type LNCaP and LAPC-4 cell lines and cells transfected with SLCO2B1
  effect of increasing DHEAS level on PSA expression: up-regulated PSA expression
SLCO2B1-312Gln
  Km: 17.7 µM
